# Experimental data from patent publication US20210030005A1, “BENZOXABOROLE COMPOSITIONS HAVING A GROWTH ENHANCING EFFECT” (BORAGEN, INC., priority 2018, published 2021).
# Legend:
# [1] = system: maize seeds; assay: Seed treatment growth effect on maize (germination trays); type: in vivo; conditions: for Mean Root Length / Mean Stem Length: suspension concentrate, 10 days
# Description: A sample suspension concentrate was prepared by mixing 0.8 g of Atlas G-5002L, 0.8 g ATLOX 4913, 5 g of glycerin, 50 mg of anti-foam compound, 0.178 g of xanthan gum, 89 mg of anti-microbial, 53.08 g of water, and 40 g of BAG8. […] […] The container was then shaken to evenly coat the seeds and allowed to dry overnight. Once dry, 50 seeds from each rate and 50 untreated seeds were placed in separate seed germination trays with moist paper towel. 10 days later, root and stem lengths from each seed were taken. Analysis of variance was used to examine root and stem length data and means were separated using Fisher's least significant difference at α=0.05.
# [2] = system: soybean seedlings; assay: Soil drench treatment on soybean seedlings (perlite); type: in vivo; conditions: for Mean Root Length: 10 days after germination, measured 10 days following drench
# Description: Sample soil drench treatments were prepared by dissolving […], 3.19 mg, or 3.99 mg of BAG8 in 67.5 mL of acetone in separate vials. Each vial was then added to 202.5 mL of water and shaken vigorously to produce a suitable sample for soil drench treatment at rates of 75 g/A, 100 g/A, and 125 g/A, respectively.
# Soybean seeds were sown into pots filled with perlite growth medium and allowed to germinate under normal glass house conditions. 10 days after germination the pots were drenched with the respective BAG8 solutions. 10 days following the drench, root lengths were measured. Analysis of variance was used to examine […] length data and means were separated using Fisher's least significant difference at α=0.05.
# [3] = system: Asian Soybean Rust (Phakopsora pachyrhizi); assay: Field trial, Asian Soybean Rust severity on soybean; type: in vivo
# Description: (§1) In this example, diseased soybeans having Asian Soybean Rust (Phakopsora pachyrhizi) were treated with BAG8 and Azoxystrobin. Testing was performed to assess the fungicidal effect of the compounds on Asian Soybean Rust and to assess the growth enhancing effects of the compounds on the diseased soybeans.
# (§2) Soybeans were planted into 6×30 ft plots and replicated four times in a randomized complete block design. Two treatments and an untreated control were tested for efficacy against Asian Soybean Rust (Phakopsora pachyrhizi) and assessed for yield at the conclusion of the growing season. Foliar applications of the two treatments, BAG8 at 0.25 pounds of active ingredient per acre and azoxystrobin at 0.25 pounds of active ingredient per acre, were applied to the plots at two separate times: growth stage R1 (flowering) and growth stage R3 (bean pod formation). Best practices were used consistently across the test plots with regard to field conditions such as fertilization, insect control, weed control, and irrigation. Disease assessments were taken in each plot 28 days after the final foliar fungicide application. At maturity, each plot was harvested using standard harvesting equipment. After shelling, the beans were weighed at 13% moisture and yield calculations extrapolated to bushels per acre.
# (§3) Analysis of variance (ANOVA) was used to examine disease severity data and means were separated using Fisher's least significant difference (LSD) method at α=0.05. […]
# [4] = system: diseased soybeans; assay: Field trial, yield of diseased soybeans; type: in vivo, soybean
# Description: as §1, §2, §3
# [5] = all tested application rates, maize seed treatment
smiles,measurement,setting,value
"OB1OCc2cc(Cl)ccc21 [BAG8, 5-chlorobenzo[c][1,2]oxaborol-1(3H)-ol]",increased root length relative to untreated control,[1]; [5],49-70%
same,increased stem length relative to untreated control,[1]; [5],54-75%
same,Mean Root Length,[1]; seed treatment 0.25 lb ai/A,122.0 mm
same,Mean Stem Length,[1]; seed treatment 0.25 lb ai/A,141.0 mm
same,Mean Root Length,[1]; seed treatment 0.50 lb ai/A,110.2 mm
same,Mean Stem Length,[1]; seed treatment 0.50 lb ai/A,124.5 mm
same,Mean Root Length,[1]; seed treatment 0.75 lb ai/A,125.1 mm
same,Mean Stem Length,[1]; seed treatment 0.75 lb ai/A,136.5 mm
same,increased root length,"[2]; all tested application rates, soil drench, soybean seedlings (Table 12)",6-27%
same,Mean Root Length,[2]; soil drench 75 g ai/A,329.5 mm
same,Mean Root Length,[2]; soil drench 100 g ai/A,275.8 mm
same,Mean Root Length,[2]; soil drench 125 g ai/A,309.7 mm
same,reduced disease in comparison to untreated control,[3]; 0.25 lb ai/A foliar,47%
same,Disease Severity (% Leaf Coverage),"[3]; 0.25 lb ai/A foliar at R1 and R3, 28 days after final application",48.2 c % Leaf Coverage
same,increased soybean yield,[4]; 0.25 lb ai/A foliar,281%
same,Yield,"[4]; 0.25 lb ai/A foliar at R1 and R3, harvest at maturity, 13% moisture",55.6 a bu/A
